The structures appear in SMILES notation. A value given as a limit tells only on which side of the number the result lay.

Data set [1] is described as follows: Solubility of drugs within HFA 227 with ethanol addition.
Data set [2] in a line: Solubility of drugs within HFA 134a with ethanol addition.
A short description of data set [3]: Solubility of suspension stabilisers in HFA 134a or HFA 227 with ethanol and additives. In kind it is physicochemical. On the procedure:
Trehalose has been determined to be insoluble (observed to be <0.12 μg/50 μl) in HFA 134a or HFA 227 with up to 12% w/w ethanol and only slightly soluble in 30% w/w ethanol (3.3 μg/[…] in HFA 134a, 2.7 μg/50 μl in HFA 227).
Leucine has been determined to be insoluble (observed to be <0.08 μg/50 μl) in HFA 134a or HFA 227 with up to 30% w/w ethanol.

In the case of `CCCC1O[C@@H]2C[C@H]3[C@@H]4CCC5=CC(=O)C=C[C@]5(C)[C@H]4[C@@H](O)C[C@]3(C)[C@]2(C(=O)CO)O1` (some centres unmarked) [Budesonide], the “Solubility within HFA 227” value in data set [1] (EtOH addition 0 % w/w) is on record as 1.66 μg per 50 μl; in data set [1] (EtOH addition 1 % w/w) it was 5.61 μg per 50 μl; in data set [1] (EtOH addition 5 % w/w), 45.16 μg per 50 μl.
On to `CCC(=O)O[C@]1(C(=O)SCF)[C@H](C)C[C@H]2[C@@H]3C[C@H](F)C4=CC(=O)C=C[C@]4(C)[C@@]3(F)[C@@H](O)C[C@@]21C` [Fluticasone Propionate], for which the “Solubility within HFA 227” value in data set [1] (EtOH addition 0 % w/w) is recorded as 0.22 μg per 50 μl; in data set [1] (EtOH addition 0.2 % w/w) it was 0.23 μg per 50 μl; in data set [1] (EtOH addition 1 % w/w) it was 0.83 μg per 50 μl; in data set [1] (EtOH addition 5 % w/w), 4.78 μg per 50 μl.
Consider `COc1ccc(CC(C)NCC(O)c2ccc(O)c(NC=O)c2)cc1` (centres unmarked) [Formoterol], for which the “Solubility within HFA 227” value was 0.00 μg per 50 μl in data set [1] (EtOH addition 0 % w/w), 0.02 μg per 50 μl in data set [1] (EtOH addition 1 % w/w) and 0.23 μg per 50 μl in data set [1] (EtOH addition 5 % w/w). The entries for the “Solubility within HFA 134a” value in data set [2] (EtOH addition 0 % w/w), in data set [2] (EtOH addition 1 % w/w) and in data set [2] (EtOH addition 5 % w/w) were 0.00 μg per 50 μl, 0.03 μg per 50 μl and 0.73 μg per 50 μl, respectively.
As to `C[N+]1(C)[C@@H]2C[C@@H](OC(=O)C(O)(c3cccs3)c3cccs3)C[C@H]1[C@@H]1O[C@@H]12` [Tiotropium Bromide], the “Solubility within HFA 227” value amounted to 0.00 μg per 50 μl in data set [1] (EtOH addition 0 % w/w), 0.00 μg per 50 μl in data set [1] (EtOH addition 1 % w/w) and 0.07 μg per 50 μl in data set [1] (EtOH addition 5 % w/w). Also, the “Solubility within HFA 134a” value was determined as 0.00 μg per 50 μl in data set [2] (EtOH addition 0 % w/w), 0.01 μg per 50 μl in data set [2] (EtOH addition 1 % w/w) and 0.33 μg per 50 μl in data set [2] (EtOH addition 5 % w/w).
Consider `OC[C@H]1O[C@H](O[C@H]2O[C@H](CO)[C@@H](O)[C@H](O)[C@H]2O)[C@H](O)[C@@H](O)[C@@H]1O` [Trehalose], for which the Solubility in data set [1] (30% w/w ethanol in HFA 227) was 2.7 μg/50 μl.
As to `CC(C)C[C@H](N)C(=O)O` [Leucine], the Solubility in data set [3] (3% w/w ethanol with 0.5% w/w propylene glycol or 0.01% w/w oleic acid, HFA 134a or HFA 227) is recorded as less than 0.08 μg/50 μl; in data set [3] (12% w/w ethanol with 1.2% w/w water, HFA 134a or HFA 227) it was less than 0.08 μg/50 μl; in data set [3] (HFA 134a or HFA 227 with up to 30% w/w ethanol) it was less than 0.08 μg/50 μl.
